Peptide text beside a SMILES is read from it.
Key:
[1] = target: T1, OX40L-OX40R interaction (OX40R-IgG1 / OX40L-CD8) (Homo sapiens, UniProt P43489); assay: Alphascreen-based competition assay (displacement of OX40L-CD8 from OX40R-IgG1); format: binding; settings: for inhibition of binding of OX40R to OX40L (in words): Alphascreen-based competition assay
T1 sequence (P43489 29-208): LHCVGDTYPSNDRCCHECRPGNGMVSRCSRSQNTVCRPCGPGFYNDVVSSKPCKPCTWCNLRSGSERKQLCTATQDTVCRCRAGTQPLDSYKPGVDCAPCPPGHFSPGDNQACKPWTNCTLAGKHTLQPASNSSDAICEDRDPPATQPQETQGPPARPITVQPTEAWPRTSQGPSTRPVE
Method: Alphascreen™ modified acceptor and donor beads were purchased (Biosignal Packard). OX40R-IgG1 and OX40L-CD8 fusion proteins were immobilized, respectively, onto protein A-conjugated acceptor beads and, by the means of a biotinylated anti-CD8 antibody, onto streptavidin-conjugated donor beads.
The binding assay was performed using Costar® 384-well white polystyrene plates (Corning). Each well of a 384-well plate contained a reaction mix having a volume of 25 microliters. Each of the five components of the reaction mix (OX40R-IgG1, OX40L-CD8, biotinylated anti-CD8, streptavidin-conjugated donor beads, and Protein A-conjugated acceptor beads) was added in a volume of 5 microliters. All dilutions were made in assay buffer (Phosphate Buffer Saline and 0.1% BSA), with or without dimethyl sulfoxide (DMSO).
In the standard assay, OX40-IgG1 and OX40L-CD8 were incubated together for 30 minutes, and then biotinylated anti-CD8 antibody (10 nM) was added. Following another incubation period of 30 minutes, streptavidin donor beads (20 μg/ml) and Protein A acceptor beads (20 μg/ml) were added to each individual well. The plate was counted 1 hour later using a Packard Fusion™ reader (Biosignal Packard) set at a read time of 1 second/well. Owing to the light sensitivity of the donor and acceptor beads, the experiments were carried out under blue light and all incubation periods were performed at room temperature. The plate was read at an excitation wavelength of 680 nanometers combined with a shorter emission wavelength of 520-620 nanometers.
All KD, IC50 and EC50 values were calculated using Prism® software (Graphpad Software). The transformation of IC50 values into Ki values was performed using the Cheng-Prusoff equation (Cheng Y C and Prusoff W H, 1973).
The ability of two known competitors of OX40L-OX40R interactions (untagged recombinant human soluble OX40L and suramin), which are themselves unable to generate an Alphascreen™ signal in this assay in absence of OX40L-CD8, to displace OX40L-CD8 from OX40R-IgG1 was investigated. The displacement experiments were performed, taking into consideration the approximate KD value, with a concentration of OX40L-CD8 (40 nM) that was 4 times greater than that of the OX40R-IgG1 (10 nM). Increasing concentrations of OX40L (3 μM-0.1 pM) or suramin (1 mM[…]1 nM) were added to a reaction mixture also containing OX40-IgG1 (10 nM) and OX40L-CD8 (40 nM). […] This latter value for suramin is similar to reported values for inhibition of TNF-α binding to the TNF receptor (Gray P W et al., 1990).
The soluble components (OX40-IgG1, OX40L-CD8 and biotinylated anti-CD8 antibody) were mixed at the concentration described before for the competition assays with OX40L and suramin (FIG. 4), together with various concentrations of each peptide in a 5 microliter volume into a first addition step. The streptavidin donor and Protein A acceptor beads were added 30 minutes later. The plates were incubated for 2 hours in the dark, at room temperature and with shaking, before reading at a long excitation wavelength of 680 nm combined with a shorter emission wavelength of 520-620 nanometers, as described in Example 1.

OX40R = target: T2, OX40R (Homo sapiens, UniProt P43489); settings: literature value; read-out: Kd of OX40L (homotrimer) for OX40R; cited from earlier work
T2 sequence (P43489 29-277): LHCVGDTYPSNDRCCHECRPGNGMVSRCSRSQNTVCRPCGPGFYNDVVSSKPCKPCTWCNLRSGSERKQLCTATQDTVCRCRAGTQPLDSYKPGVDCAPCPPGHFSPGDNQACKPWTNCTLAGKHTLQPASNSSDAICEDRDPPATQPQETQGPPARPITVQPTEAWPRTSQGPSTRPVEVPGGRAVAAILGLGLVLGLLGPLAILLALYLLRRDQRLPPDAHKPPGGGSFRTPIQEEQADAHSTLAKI

OX40R-IgG1 = target: T3, OX40R-IgG1 (Homo sapiens, UniProt P43489); assay: Fluorescence quenching assay of OX40R-IgG1; format: binding
T3 construct: extracellular portion of human OX40R (amino acids 1-208 of SWISSPROT Acc. No P43489); human IgG1 constant region (hinge, CH2 and CH3); made in house; purified from the supernatant on protein G
T3 sequence (P43489 29-208): T1 sequence (P43489 29-208)
Method: The fluorescence quenching assay was performed as previously described (Golabek A et al., 2000). OX40R-IgG1 (35 micrograms) was dissolved in 500 microliters of PBS and the fluorescence spectum was recorded at 295-420 nanometers with an excitation wavelength of 290 nanometers using a spectrofluorimeter (Perkin Elmer LS50B) with the slits set at 5 nanometers. Fluorescence spectra of human OX40R-IgG1 were then recorded in the presence of increasing concentrations (5-1000 nM) of P5 and P5-1 peptides after 15 minutes of equilibration. The fluorescence change at 336 nanometers was plotted versus peptide concentration and the resulting curves were analyzed by nonlinear regression fit with Prism® software (GraphPad).
The affinity of the peptides identified in Example 1 as inhibitor of OX40L-OX40R interaction was evaluated by fluorescence quenching spectroscopy, a technology allowing such measurements in solution, under native conditions and without beads or other supports. This method is based on monitoring the changes in the intrinsic fluorescence of a protein (OX40R-IgG1) upon its binding with another protein (P5 or P5-1). […]

Cc1ccc(C(=O)Nc2ccc(S(=O)(=O)O)c3cc(S(=O)(=O)O)cc(S(=O)(=O)O)c23)cc1NC(=O)c1cccc(NC(=O)Nc2cccc(C(=O)Nc3cc(C(=O)Nc4ccc(S(=O)(=O)O)c5cc(S(=O)(=O)O)cc(S(=O)(=O)O)c45)ccc3C)c2)c1 [suramin, Suramin, reference compound]
IC50 ([1]; OX40-IgG1 10 nM, OX40L-CD8 40 nM, read-out: IC50 for competition of OX40L-CD8 binding): 79 µM
Ki ([1]; OX40-IgG1 10 nM, OX40L-CD8 40 nM, read-out: Ki (Cheng-Prusoff from IC50)): 26.3 µM

OX40L: recombinant human soluble OX40L, extracellular portion, prepared as GST fusion in baculovirus system; b9 value is for natural homotrimer
-log IC50±SEM ([1]; OX40-IgG1 10 nM, OX40L-CD8 40 nM): 8.23±0.35
Kd (OX40R): 0.0002 to 0.0004 µM

EKGFILTSQKEDEIMKVQNNSVIINCDGFYL (human OX40R binding peptides) [P4, peptide corresponding to amino acids 72-102 of human OX40L]
inhibition of binding of OX40R to OX40L (in words) [1]: bind OX40R very poorly

CC[C@H](C)[C@H](N)C(=O)N[C@H](C(=O)N[C@@H](CC(N)=O)C(=O)N[C@@H](CS)C(=O)N[C@@H](CC(=O)O)C(=O)NCC(=O)N[C@@H](Cc1ccccc1)C(=O)N[C@@H](Cc1ccc(O)cc1)C(=O)N[C@@H](CC(C)C)C(=O)N[C@H](C(=O)N[C@@H](CO)C(=O)N[C@@H](CC(C)C)C(=O)N[C@@H](CCCCN)C(=O)NCC(=O)N[C@@H](Cc1ccc(O)cc1)C(=O)N[C@@H](Cc1ccccc1)C(=O)N[C@@H](CO)C(=O)N[C@@H](CCC(N)=O)C(=O)N[C@@H](CCC(=O)O)C(=O)N[C@H](C(=O)N[C@@H](CC(N)=O)C(=O)N[C@H](C(=O)N[C@@H](CO)C(=O)N[C@@H](CC(C)C)C(=O)N[C@@H](Cc1c[nH]cn1)C(=O)N[C@@H](Cc1ccc(O)cc1)C(=O)N[C@@H](CCC(N)=O)C(=O)N[C@@H](CCCCN)C(=O)N[C@@H](CC(=O)O)C(=O)N[C@@H](CCC(=O)O)C(=O)N[C@@H](CCC(=O)O)C(=O)O)[C@@H](C)CC)C(C)C)[C@@H](C)CC)[C@@H](C)CC [P5] (H-IINCDGFYLISLKGYFSQEVNISLHYQKDEE-OH; N-terminus and C-terminus assumed)
inhibition of binding of OX40R to OX40L (in words) [1]: micromolar range

CC[C@H](C)[C@H](NC(=O)[C@H](CC(N)=O)NC(=O)[C@@H](NC(=O)[C@H](CCC(=O)O)NC(=O)[C@H](CCC(N)=O)NC(=O)[C@H](CO)NC(=O)[C@H](Cc1ccccc1)NC(=O)[C@H](Cc1ccc(O)cc1)NC(=O)CN)C(C)C)C(=O)N[C@@H](CO)C(=O)O [P5-1, GYFSQEVNIS] (H-GYFSQEVNIS-OH; N-terminus and C-terminus assumed)
Kd (OX40R-IgG1): ~0.0246 µM

— patent publication US7858765B2, “OX40R binding agents” (Merck Serono SA, priority 2002, dated 2010)
